Values of other authors as cited in patent US11369498B2, “Stent and stent delivery system with improved deliverability” (MT Acquisition Holdings LLC, priority 2010, dated 2022).

Conditions: 25 C.

[Cl-].[Na+] [NaCl]
Water sol: 35.7 g/100 g
